# Values quoted from earlier work, collected in US11547692B2, “Complete animal food having cannabinoids in trace concentrations to avoid toxicity” (High Plains Nutrition, LLC, priority 2017, dated 2023).
# Tested on: psychotropic effects
# Conditions: humans; single administration; lowest dose tested; European Food Safety Authority (EFSA, 2011)
smiles,measurement,value
"CCCCCc1cc(O)c2c(c1)OC(C)(C)[C@@H]1CCC(C)=C[C@@H]21 [THC, Tetrahydrocannabinol]","Lowest Observed Effect Level (LOEL), lowest effective dose for psychotropic effects",0.04 mg THC/kg BW
